Experimental findings from patent US10040781B2, “Tank-binding kinase inhibitor compounds” (Gilead Sciences, Inc., priority 2014, dated 2018) are described below.

Like-named read-outs stand apart in the source and are kept apart here. A value given as a limit tells only on which side of the number the result lay.

One assay addresses TBK1 (Homo sapiens (Human), UniProt Q9UHD2). Nature of the assay: TBK1 TR-FRET enzymatic assay.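 Further: phosphorylation of a biotinylated Ser/Thr peptide by purified full-length recombinant TBK1, read by TR-FRET after 240 min at 25 °C, IC50 is the geometric mean of at least four runs.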 Background: In TR-FRET formats the signal depends on donor and acceptor labels being close together.
The target in another assay is hJAK2 (Homo sapiens (Human), UniProt O60674). Nature of the assay: hJAK2 LANCE TR-FRET enzymatic assay. The assay is classed as biochemical. The conditions noted are these: read-out: JAK2 IC50.
For another assay, the target named is IKKε (Homo sapiens (Human), UniProt Q14164). Nature of the assay: IKKε TR-FRET enzymatic assay. The assay is classed as biochemical. The note with it: read-out: IKKe IC50.
Setting [1] is: TR-FRET, 2×Km ATP, geometric mean of minimum four determinations.

Sequence of hJAK2 (O60674 whole entry): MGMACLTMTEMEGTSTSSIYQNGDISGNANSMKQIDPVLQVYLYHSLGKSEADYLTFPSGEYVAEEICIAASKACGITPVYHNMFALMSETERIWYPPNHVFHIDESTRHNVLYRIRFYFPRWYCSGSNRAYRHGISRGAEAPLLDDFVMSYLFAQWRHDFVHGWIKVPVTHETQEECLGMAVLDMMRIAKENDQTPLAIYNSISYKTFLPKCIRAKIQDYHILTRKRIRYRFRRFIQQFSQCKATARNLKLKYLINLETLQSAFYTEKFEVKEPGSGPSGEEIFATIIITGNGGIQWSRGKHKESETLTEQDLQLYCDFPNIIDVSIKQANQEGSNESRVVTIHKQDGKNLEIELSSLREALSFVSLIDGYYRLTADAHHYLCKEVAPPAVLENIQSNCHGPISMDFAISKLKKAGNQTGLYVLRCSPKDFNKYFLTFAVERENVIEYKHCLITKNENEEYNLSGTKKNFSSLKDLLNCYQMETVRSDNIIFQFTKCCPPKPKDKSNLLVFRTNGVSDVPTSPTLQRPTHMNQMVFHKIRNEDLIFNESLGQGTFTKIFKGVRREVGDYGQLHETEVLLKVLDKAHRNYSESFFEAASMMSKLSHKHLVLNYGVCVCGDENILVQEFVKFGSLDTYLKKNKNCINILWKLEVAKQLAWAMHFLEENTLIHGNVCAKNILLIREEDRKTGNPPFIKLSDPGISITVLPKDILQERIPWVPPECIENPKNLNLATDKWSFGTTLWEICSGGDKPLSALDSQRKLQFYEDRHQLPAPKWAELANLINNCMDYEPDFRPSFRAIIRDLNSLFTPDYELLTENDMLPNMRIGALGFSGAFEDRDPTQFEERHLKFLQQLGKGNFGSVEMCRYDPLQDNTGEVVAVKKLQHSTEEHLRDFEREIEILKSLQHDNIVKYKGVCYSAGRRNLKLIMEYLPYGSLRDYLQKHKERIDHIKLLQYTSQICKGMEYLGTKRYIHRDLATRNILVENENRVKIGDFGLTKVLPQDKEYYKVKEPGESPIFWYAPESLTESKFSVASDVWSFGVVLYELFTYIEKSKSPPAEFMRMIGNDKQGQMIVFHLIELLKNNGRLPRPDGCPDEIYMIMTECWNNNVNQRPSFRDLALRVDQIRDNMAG
Sequence of TBK1 (Q9UHD2 whole entry): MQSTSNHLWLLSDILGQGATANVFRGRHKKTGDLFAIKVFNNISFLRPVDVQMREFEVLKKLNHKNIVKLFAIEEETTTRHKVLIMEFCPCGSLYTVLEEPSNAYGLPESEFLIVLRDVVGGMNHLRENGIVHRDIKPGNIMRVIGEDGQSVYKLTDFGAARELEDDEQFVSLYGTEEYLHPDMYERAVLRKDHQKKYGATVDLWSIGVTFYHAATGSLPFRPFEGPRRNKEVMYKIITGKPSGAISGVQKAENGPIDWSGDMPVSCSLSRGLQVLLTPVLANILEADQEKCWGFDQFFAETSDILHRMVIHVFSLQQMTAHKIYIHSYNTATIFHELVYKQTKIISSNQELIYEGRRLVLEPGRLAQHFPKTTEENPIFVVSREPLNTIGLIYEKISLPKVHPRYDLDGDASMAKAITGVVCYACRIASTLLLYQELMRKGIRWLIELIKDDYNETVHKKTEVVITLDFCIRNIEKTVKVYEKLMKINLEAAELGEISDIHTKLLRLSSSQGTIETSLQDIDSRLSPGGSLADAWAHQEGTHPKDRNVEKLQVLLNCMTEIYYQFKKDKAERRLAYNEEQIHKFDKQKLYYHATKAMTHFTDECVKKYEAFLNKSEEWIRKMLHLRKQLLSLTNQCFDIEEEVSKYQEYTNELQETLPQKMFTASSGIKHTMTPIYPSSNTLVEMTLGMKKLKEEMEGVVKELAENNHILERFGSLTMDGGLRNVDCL
Sequence of IKKε (Q14164 whole entry): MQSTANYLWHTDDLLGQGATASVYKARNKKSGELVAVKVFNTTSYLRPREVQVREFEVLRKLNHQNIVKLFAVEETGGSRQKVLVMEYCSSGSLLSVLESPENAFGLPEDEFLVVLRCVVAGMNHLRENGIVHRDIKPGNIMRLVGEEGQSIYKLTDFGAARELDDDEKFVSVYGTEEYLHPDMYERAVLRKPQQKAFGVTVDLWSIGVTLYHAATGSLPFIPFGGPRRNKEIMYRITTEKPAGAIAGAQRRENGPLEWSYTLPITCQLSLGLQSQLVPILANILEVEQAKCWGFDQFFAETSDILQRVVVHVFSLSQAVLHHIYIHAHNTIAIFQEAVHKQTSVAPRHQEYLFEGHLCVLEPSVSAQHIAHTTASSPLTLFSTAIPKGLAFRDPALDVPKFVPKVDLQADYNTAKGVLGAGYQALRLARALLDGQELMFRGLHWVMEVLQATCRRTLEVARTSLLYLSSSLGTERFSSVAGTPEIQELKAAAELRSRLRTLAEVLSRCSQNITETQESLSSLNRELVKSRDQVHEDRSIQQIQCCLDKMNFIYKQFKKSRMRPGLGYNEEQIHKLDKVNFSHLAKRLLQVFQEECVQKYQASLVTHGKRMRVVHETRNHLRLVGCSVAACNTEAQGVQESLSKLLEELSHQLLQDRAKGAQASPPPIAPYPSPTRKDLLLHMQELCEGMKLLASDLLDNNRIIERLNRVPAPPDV

A word on the IC50: it is the concentration at which inhibition is half-maximal. `N#Cc1cc(-c2ncnc(Nc3cccc(N4CCN(C5COC5)CC4)c3)n2)ccc1OC1CCOCC1` [Example 69, 5-(4-((3-(4-(oxetan-3-yl)piperazin-1-yl)phenyl)amino)-1,3,5-triazin-2-yl)-2-((tetrahydro-2H-pyran-4-yl)oxy)benzonitrile]: the half-inhibitory concentration (IC50) against TBK1 is 6 nM; on hJAK2 it was more than 1000 nM; at IKKε, 4 nM.

Consider `N#Cc1cc(-c2ncnc(Nc3ccc(N4CCN(C5COC5)CC4)cc3)n2)ccc1OCCN1CCN(C(N)=O)CC1` [Example 606, 4-(2-(2-cyano-4-(4-((4-(4-(oxetan-3-yl)piperazin-1-yl)phenyl)amino)-1,3,5-triazin-2-yl)phenoxy)ethyl)piperazine-1-carboxamide], for which the IC50 against TBK1 was 503 nM; on hJAK2, not below 1000 nM; at IKKε, 494 nM.

Regarding `COc1cc(Nc2ncnc(-c3ccc(OC4CCOCC4)c(C#N)c3)n2)ccc1N1CCN(CC(F)F)CC1` [Example 7, 5-(4-((4-(4-(2,2-difluoroethyl)piperazin-1-yl)-3-methoxyphenyl)amino)-1,3,5-triazin-2-yl)-2-((tetrahydro-2H-pyran-4-yl)oxy)benzonitrile], the 50% inhibitory concentration (IC50) against TBK1 was 1 nM; at hJAK2 it was 225 nM; on IKKε, 3 nM.

`N#Cc1cc(-c2ncnc(Nc3ccc(N4CCN(C5COC5)CC4)cc3)n2)ccc1OC1CCN(C(=O)c2cc[nH]c2)CC1` [Example 191, 2-((1-(1H-pyrrole-3-carbonyl)piperidin-4-yl)oxy)-5-(4-((4-(4-(oxetan-3-yl)piperazin-1-yl)phenyl)amino)-1,3,5-triazin-2-yl)benzonitrile]: the half-maximal inhibitory concentration (IC50) at TBK1 is 67 nM; on hJAK2, not below 1000 nM; on IKKε, 226 nM.

Turning to `COc1cc(Nc2ncnc(-c3ccc(O[C@H]4CCN(C(=O)[C@@H]5CCC(=O)N5)C[C@H]4F)c(C#N)c3)n2)ccc1N1CCN(C2COC2)CC1` [Example 544, 2-(((3R,4S)-3-fluoro-1-((S)-5-oxopyrrolidine-2-carbonyl)piperidin-4-yl)oxy)-5-(4-((3-methoxy-4-(4-(oxetan-3-yl)piperazin-1-yl)phenyl)amino)-1,3,5-triazin-2-yl)benzonitrile], the IC50 against TBK1 came out at 2 nM; on hJAK2, 44 nM; at IKKε (setting [1]), 1 nM.

In the case of `CCn1cc(Nc2ncnc(-c3ccc(O[C@H]4CCN(C(=O)[C@H](C)O)C[C@H]4F)c(C#N)c3)n2)c(C)n1` [Example 568, 5-(4-((1-ethyl-3-methyl-1H-pyrazol-4-yl)amino)-1,3,5-triazin-2-yl)-2-(((3R,4S)-3-fluoro-1-((S)-2-hydroxypropanoyl)piperidin-4-yl)oxy)benzonitrile], the values for the IC50 at TBK1, on hJAK2 and on IKKε (setting [1]) were 9 nM, not below 1000 nM and 21 nM, respectively.

Turning to `N#Cc1cc(-c2ncnc(Nc3ccc(C4CCN(C5COC5)CC4)cc3)n2)ccc1OC1CCN(C(=O)CO)CC1` [Example 56, 2-((1-(2-hydroxyacetyl)piperidin-4-yl)oxy)-5-(4-((4-(1-(oxetan-3-yl)piperidin-4-yl)phenyl)amino)-1,3,5-triazin-2-yl)benzonitrile], the figures for the concentration for half-maximal inhibition (IC50) against TBK1, on hJAK2 and at IKKε were 2 nM, more than 1000 nM and 3 nM, respectively.

Consider `N#Cc1cc(-c2ncnc(Nc3ccc(N4CCN(C5COC5)CC4)cc3)n2)ccc1O[C@H]1CCN(C(=O)c2cnc[nH]2)CC1(F)F` [Example 167, (S)-2-((3,3-difluoro-1-(1H-imidazole-5-carbonyl)piperidin-4-yl)oxy)-5-(4-((4-(4-(oxetan-3-yl)piperazin-1-yl)phenyl)amino)-1,3,5-triazin-2-yl)benzonitrile], for which the IC50 against TBK1 was 3 nM; at hJAK2, 104 nM; at IKKε, 1 nM.

Regarding `C[C@H](O)C(=O)N1CCC(Oc2ccc(-c3ncnc(Nc4ccc(N5CCO[C@@H](CO)C5)cc4)n3)cc2C#N)CC1` [Example 225, 5-(4-((4-((R)-2-(hydroxymethyl)morpholino)phenyl)amino)-1,3,5-triazin-2-yl)-2-((1-((S)-2-hydroxypropanoyl)piperidin-4-yl)oxy)benzonitrile], the concentration for half-maximal inhibition (IC50) against TBK1 was 8 nM; on hJAK2, not below 1000 nM; on IKKε it was 22 nM.

Regarding `COCCN1CC(COc2ccc(-c3ncnc(Nc4ccc(N5CCN(C6COC6)CC5)cc4)n3)cc2C#N)CC1=O` (stereo not drawn) [Example 601, 2-((1-(2-methoxyethyl)-5-oxopyrrolidin-3-yl)methoxy)-5-(4-((4-(4-(oxetan-3-yl)piperazin-1-yl)phenyl)amino)-1,3,5-triazin-2-yl)benzonitrile], the 50% inhibitory concentration (IC50) against TBK1 was 1000 nM; on hJAK2, not below 1000 nM; on IKKε, not below 1000 nM.

For `N#Cc1cc(-c2ncnc(Nc3ccc(N4CCN(C5COC5)CC4)cc3)n2)ccc1O[C@H]1CCN(C(=O)c2[nH]nc(N)c2Cl)C[C@H]1F` [Example 323, 2-(((3R,4S)-1-(3-amino-4-chloro-1H-pyrazole-5-carbonyl)-3-fluoropiperidin-4-yl)oxy)-5-(4-((4-(4-(oxetan-3-yl)piperazin-1-yl)phenyl)amino)-1,3,5-triazin-2-yl)benzonitrile], the half-inhibitory concentration (IC50) on TBK1 is 3 nM; at hJAK2, 75 nM; at IKKε, 3 nM.

On to `N#CCC(=O)N1CC[C@H](Oc2ccc(-c3ncnc(Nc4ccc(N5CCO[C@@H](CO)C5)cc4)n3)cc2C#N)[C@H](F)C1` [Example 467, 2-(((3R,4S)-1-(2-cyanoacetyl)-3-fluoropiperidin-4-yl)oxy)-5-(4-((4-((R)-2-(hydroxymethyl)morpholino)phenyl)amino)-1,3,5-triazin-2-yl)benzonitrile], for which the IC50 amounted to 4 nM against TBK1, 171 nM at hJAK2 and 4 nM at IKKε (setting [1]).

For `N#Cc1cc(-c2ncnc(Nc3ccc(N4CCN(C5COC5)CC4)cc3)n2)ccc1O[C@H]1CCN(C(=O)c2nnc[nH]2)C[C@H]1F` [Example 144, 2-(((3R,4S)-3-fluoro-1-(4H-1,2,4-triazole-3-carbonyl)piperidin-4-yl)oxy)-5-(4-((4-(4-(oxetan-3-yl)piperazin-1-yl)phenyl)amino)-1,3,5-triazin-2-yl)benzonitrile], the IC50 against TBK1 was found to be 2 nM; at hJAK2, 104 nM; on IKKε it was 1 nM.

`C[C@H](O)C(=O)N1C[C@@H](C)[C@H](Oc2ccc(-c3ncnc(Nc4ccc(N5CCN(C6COC6)CC5)cc4)n3)cc2C#N)C(F)(F)C1` [Example 431, trans-2-((3,3-difluoro-1-((S)-2-hydroxypropanoyl)-5-methylpiperidin-4-yl)oxy)-5-(4-((4-(4-(oxetan-3-yl)piperazin-1-yl)phenyl)amino)-1,3,5-triazin-2-yl)benzonitrile]: the concentration for half-maximal inhibition (IC50) at TBK1 was determined as 11 nM; at hJAK2, 496 nM; on IKKε (setting [1]), 17 nM.

Consider `C[C@H](O)C(=O)N1CC[C@H](Oc2ccc(-c3ncnc(Nc4ccc(N5CCN(C6COC6)[C@@H](C)C5)cc4)n3)cc2C#N)C(F)(F)C1` [Example 262, 2-(((S)-3,3-difluoro-1-((S)-2-hydroxypropanoyl)piperidin-4-yl)oxy)-5-(4-((4-((S)-3-methyl-4-(oxetan-3-yl)piperazin-1-yl)phenyl)amino)-1,3,5-triazin-2-yl)benzonitrile], for which the figures for the IC50 at TBK1, on hJAK2 and on IKKε were 2 nM, 156 nM and 1 nM, respectively.

With `CC(C)[C@@H](O)C(=O)N1CC[C@H](Oc2ccc(-c3ncnc(Nc4ccc(N5CCN(C6COC6)CC5)cc4)n3)cc2C#N)[C@H](F)C1` [Example 465, 2-(((3R,4S)-3-fluoro-1-((R)-2-hydroxy-3-methylbutanoyl)piperidin-4-yl)oxy)-5-(4-((4-(4-(oxetan-3-yl)piperazin-1-yl)phenyl)amino)-1,3,5-triazin-2-yl)benzonitrile], the figures for the IC50 on TBK1, at hJAK2 and at IKKε (setting [1]) were 146 nM, 706 nM and 364 nM, respectively.

For the molecule `COc1cc(Nc2ncnc(-c3ccc(O[C@@H]4CCC(=O)NC4)c(C#N)c3)n2)ccc1N1CCN(C2COC2)CC1` [Example 531, (R)-5-(4-((3-methoxy-4-(4-(oxetan-3-yl)piperazin-1-yl)phenyl)amino)-1,3,5-triazin-2-yl)-2-((6-oxopiperidin-3-yl)oxy)benzonitrile], the IC50 against TBK1 turned out to be 4 nM; on hJAK2 it was 55 nM; at IKKε (setting [1]) it was 3 nM.

Turning to `N#Cc1cc(-c2ncnc(Nc3ccc(N4CCN(C5COC5)CC4)c(OC(F)F)c3)n2)ccc1O[C@H]1CCN(C(=O)CO)C[C@H]1F` [Example 393, 5-(4-((3-(difluoromethoxy)-4-(4-(oxetan-3-yl)piperazin-1-yl)phenyl)amino)-1,3,5-triazin-2-yl)-2-(((3R,4S)-3-fluoro-1-(2-hydroxyacetyl)piperidin-4-yl)oxy)benzonitrile], the IC50 against TBK1 turned out to be 3 nM; on hJAK2 it was 29 nM; at IKKε, 1 nM.

Consider `C[C@H](O)C(=O)N1CC[C@H](Oc2ccc(-c3ncnc(Nc4cnn(C5COC5)c4)n3)cc2C#N)[C@H](F)C1` [Example 353, 2-(((3R,4S)-3-fluoro-1-((S)-2-hydroxypropanoyl)piperidin-4-yl)oxy)-5-(4-((1-(oxetan-3-yl)-1H-pyrazol-4-yl)amino)-1,3,5-triazin-2-yl)benzonitrile], for which the half-inhibitory concentration (IC50) at TBK1 was 7 nM; at hJAK2 it was 944 nM; at IKKε it was 10 nM.

In the case of `N#Cc1cc(-c2ncnc(Nc3ccc(N4CCOCC4)cc3)n2)ccc1NC(=O)C1CC1` [Example 42, N-(2-cyano-4-(4-((4-morpholinophenyl)amino)-1,3,5-triazin-2-yl)phenyl)cyclopropanecarboxamide], the concentration for half-maximal inhibition (IC50) at TBK1 was 35 nM; on hJAK2 it was 24 nM; at IKKε, 71 nM.

With `C[C@H](O)C(=O)N1CCC(Oc2ccc(-c3ncnc(Nc4ccc(N5CCN(C6COC6)CC5)cc4)n3)cc2C#N)C(F)(F)C1` (stereo partly drawn) [Example 154, 2-((3,3-difluoro-1-((S)-2-hydroxypropanoyl)piperidin-4-yl)oxy)-5-(4-((4-(4-(oxetan-3-yl)piperazin-1-yl)phenyl)amino)-1,3,5-triazin-2-yl)benzonitrile], the values for the IC50 against TBK1, at hJAK2 and at IKKε were 1 nM, 168 nM and 3 nM, respectively.
